For four compounds, blood glucose reduction, Emax and melting point results are on record in patent publication US8329914B2, “Cyclic benzimidazole derivatives useful as anti-diabetic agents” (Merck Sharp & Dohme Corp, priority 2008, dated 2012).

What is called melting point is the temperature, or range, at which the solid turns liquid.

Data set [1] concerns ob/ob and db/db mice. The note with it: following 8 weeks of administration; cited from earlier work.
The target of data set [2] is recombinant human AMPK complex 1 (containing α1β1γ1) (Homo sapiens, UniProt Q13131+Q9Y478). Put plainly: AMPKSAMSF (in vitro AMPK activation assay). The data set is classed as biochemical. The note with it: recombinant human AMPK complex 1 (α1β1γ1); basal activity subtracted; read-out: % Maximum AMP Activation of human AMPK Complex 1. As to the method: The recombinant human AMPK complex 1 (containing α1β1γ1) was obtained from baculovirus expression system. Recombinant viruses were generated by cotransfection of AMPK/pBacPak9 clones with Baculogold baculovirus DNA (Pharmingen) in spodoptera frugiperda 21 cells according to the manufacturer's instructions. Each round of virus amplification was performed for 5 days in Grace's medium containing 10% serum. Virus that had been subjected to three rounds of amplification was used for all protein production procedures. To express the AMPK complex, sf21 cells were adapted to serum free medium (SF900 II, Invitrogen) by sequential dilution from serum containing stocks into SF900II medium and maintained in shaker flasks at 90 rpm at 27° C. The recombinant AMPK enzyme complex was produced by triple infection, one recombinant virus for each of the subunits, in sf21 cells under serum free conditions. Cells were infected in log phase, 1×10^6 cells/ml, at a multiplicity of infection of ˜5. Cells were harvested by centrifugation at 10,000×g for 15 minutes after 72 hours of infection with viruses. The insect cell pellet from 2 liters of culture was resuspended in 50 ml lysis buffer (20 mM Tris-HCl, 50 mM NaCl, 50 mM NaF, 30 mM Na PPi, 0.25 M sucrose, 10 mM ZnCl2, 2 mM DTT, 0.4 mg/ml digitonin) and subjected to two cycles of freeze-thaw lysis in a dry-ice ethanol bath. Insoluble material was removed by centrifugation at 10,000×g and the supernatant was fractionated with use of polyethylene glycol (PEG). The protein fraction precipitating between 2.5 and 6% PEG was used for further purification using a Blue-Sepharose step (Zhou et al, J. Clin Invest. 108, 1167-1174, 2001).
The total in vitro AMPK activation assay volume is 50 μl in a 96-well plate. The reaction mixture contained 100 μM ATP (0.5 μCi ^33P-ATP per reaction), and 50 μM SAMS (HMRSAMSGLHLVKRR) in a buffer (20 mM HEPES, pH 7.0, 5 mM MgCl2, 0.01% Brij35). The reaction was initiated with addition of the enzyme. After 30-minute incubation at 30° C., the reaction was stopped by addition of 80 μl 1% H3PO4. Aliquots (100 μl) were transferred to 96-well MultiScreen plates (MAPHNOB50; Millipore Corp., Bedford, Mass., USA). The plate was washed three times with 1% H3PO4 followed by detection in a Top-count. The counts per minute from the basal activity (the reaction without activator) was subtracted from each well and the data were expressed as % maximum AMP activation followed by EC50 calculation.

Sequence of recombinant human AMPK complex 1 (containing α1β1γ1) (Q13131 whole entry): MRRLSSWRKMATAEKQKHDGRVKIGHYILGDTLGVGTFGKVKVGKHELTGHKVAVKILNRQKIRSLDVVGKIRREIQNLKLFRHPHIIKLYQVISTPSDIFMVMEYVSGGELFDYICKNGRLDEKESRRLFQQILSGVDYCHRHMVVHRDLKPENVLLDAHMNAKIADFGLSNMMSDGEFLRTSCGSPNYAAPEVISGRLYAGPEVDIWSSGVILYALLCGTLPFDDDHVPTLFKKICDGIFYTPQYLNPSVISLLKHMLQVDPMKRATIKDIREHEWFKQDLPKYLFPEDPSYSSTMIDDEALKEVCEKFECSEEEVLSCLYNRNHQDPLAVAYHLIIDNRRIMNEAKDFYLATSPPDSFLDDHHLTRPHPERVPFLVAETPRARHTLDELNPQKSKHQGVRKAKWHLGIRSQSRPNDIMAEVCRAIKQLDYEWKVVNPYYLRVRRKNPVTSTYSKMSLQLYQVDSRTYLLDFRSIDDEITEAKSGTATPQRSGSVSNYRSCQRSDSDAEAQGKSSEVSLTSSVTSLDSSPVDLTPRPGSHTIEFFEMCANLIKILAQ
Sequence of recombinant human AMPK complex 1 (containing α1β1γ1) (Q9Y478 whole entry): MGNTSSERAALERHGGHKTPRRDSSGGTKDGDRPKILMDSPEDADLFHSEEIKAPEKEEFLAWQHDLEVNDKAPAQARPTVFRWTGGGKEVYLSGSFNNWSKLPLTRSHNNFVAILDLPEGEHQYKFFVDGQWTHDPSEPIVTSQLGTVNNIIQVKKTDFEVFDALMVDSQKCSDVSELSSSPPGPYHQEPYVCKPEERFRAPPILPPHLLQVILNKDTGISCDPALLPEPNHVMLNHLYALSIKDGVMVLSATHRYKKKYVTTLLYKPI
Sequence of recombinant human AMPK complex 1 (containing α1β1γ1) (P54619 whole entry partner): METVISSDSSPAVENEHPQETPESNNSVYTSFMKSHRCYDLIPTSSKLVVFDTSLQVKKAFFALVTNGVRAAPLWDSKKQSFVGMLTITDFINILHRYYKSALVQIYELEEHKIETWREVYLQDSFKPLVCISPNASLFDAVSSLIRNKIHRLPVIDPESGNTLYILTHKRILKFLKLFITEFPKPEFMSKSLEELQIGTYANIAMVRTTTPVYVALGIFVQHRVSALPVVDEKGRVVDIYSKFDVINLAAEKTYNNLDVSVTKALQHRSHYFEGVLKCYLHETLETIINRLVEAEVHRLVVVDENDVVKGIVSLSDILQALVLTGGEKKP

For the compound `NC(=O)c1ncn([C@@H]2O[C@H](CO)[C@@H](O)[C@H]2O)c1N` [AICAR], in data set [1], the blood glucose reduction was 35%.

Take `CC(C)(C)C(=O)OCOP(=O)(CSc1nc2cc(-c3ccc(-c4ccccc4)cc3)c(Cl)cc2n1COC(=O)C(C)(C)C)OCOC(=O)C(C)(C)C` [Example 36, 2,2-Dimethyl-propionic acid[5-biphenyl-4-yl-6-chloro-1-(2,2-dimethylpropionyl-oxymethyl)-1H-benzoimidazol-2-ylsulfanylmethyl]-(2,2-dimethyl-propionyl-oxymethoxy)-phosohinoyloxymethyl ester]: the melting point was in the range of 210 to 215 °C. The Emax in data set [2] is above 60%.

In turn, `O=P(O)(O)CSc1nc2cc(Cl)c(C#Cc3ccccc3)cc2[nH]1` [Example 1, (5-Chloro-6-phenylethynyl-1H-benzoimidazol-2-ylsulfanylmethyl)-phosphonic acid] returned a melting point of 210 to 215 °C. In data set [2], the Emax is above 60%.

On to `Cc1cc(-c2cc3nc(SCP(=O)(O)O)[nH]c3cc2Cl)ccc1Cl` [Example 12, [6-Chloro-5-(4-chloro-3-methyl-phenyl)-1H-benzoimidazol-2ylsulfanylmethyl]-phosphonic acid], for which the Emax in data set [2] is above 60%.
